Measurements taken from ChEMBL document CHEMBL3885881, “DrugMatrix”.

Species: Rattus norvegicus
Assay: DrugMatrix - Regimen: Daily Repeat
Assay type: toxicity, organism-based, Sprague-Dawley
Set-up: regimen Daily Repeat, gender Male, age 6-8 weeks
Settings: in vivo, po, route oral GAVAGE, vehicle 100 % WATER; for ABSOLUTE BASOPHIL / ABSOLUTE EOSINOPHIL / ABSOLUTE LYMPHOCYTE / ABSOLUTE MONOCYTE / ABSOLUTE SEGMENTED NEUTROPHIL / BASOPHIL / EOSINOPHIL / ERYTHROCYTE COUNT / HEMATOCRIT / HEMOGLOBIN / LEUKOCYTE COUNT / LYMPHOCYTE / MEAN CORPUSCULAR HEMOGLOBIN / MEAN CORPUSCULAR HEMOGLOBIN CONCENTRATION / MEAN CORPUSCULAR VOLUME / MONOCYTE / NEUTROPHIL / NUCLEATED RED BLOOD CELLS / PLATELET COUNT: tissue Blood; for ALANINE AMINOTRANSFERASE / ALBUMIN / ALKALINE PHOSPHATASE / ASPARTATE AMINOTRANSFERASE / BLOOD UREA NITROGEN / CARBON DIOXIDE / CHLORIDE / CHOLESTEROL / CREATINE PHOSPHOKINASE / CREATININE / GLUCOSE / LACTATE DEHYDROGENASE / LIPASE / PHOSPHORUS / POTASSIUM / SODIUM / TOTAL BILIRUBIN / TOTAL PROTEIN / URIC ACID: tissue Plasma
[1] = 0 mg/kg, 72 h, dose level Control, time 3 day
[2] = 0 mg/kg, 120 h, dose level Control, time 5 day
[3] = 20 mg/kg, 72 h, dose level Low, time 3 day

C=CCC1(C(C)CCC)C(=O)NC(=O)NC1=O (centres undefined) [SECOBARBITAL]
ABSOLUTE BASOPHIL [1]: 0 CELLS/uL
ABSOLUTE EOSINOPHIL [1]: 32.5 CELLS/uL
ABSOLUTE LYMPHOCYTE [1]: 9305.83 CELLS/uL
ABSOLUTE MONOCYTE [1]: 43.83 CELLS/uL
ABSOLUTE SEGMENTED NEUTROPHIL [1]: 817.83 CELLS/uL
BASOPHIL [1]: 0%
EOSINOPHIL [1]: 0.33%
ERYTHROCYTE COUNT [1]: 5.38 x10E6/uL
HEMATOCRIT [1]: 33.63%
HEMOGLOBIN [1]: 13.17 G/DL
LEUKOCYTE COUNT [1]: 10.2 x10E3/uL
LYMPHOCYTE [1]: 91.17%
MEAN CORPUSCULAR HEMOGLOBIN [1]: 24.5 pg
MEAN CORPUSCULAR HEMOGLOBIN CONCENTRATION [1]: 39.13 G/DL
MEAN CORPUSCULAR VOLUME [1]: 62.53 fL
MONOCYTE [1]: 0.5%
NEUTROPHIL [1]: 8%
NUCLEATED RED BLOOD CELLS [1]: 0.17 /100WBC
PLATELET COUNT [1]: 858 x10E3/uL
ALANINE AMINOTRANSFERASE [1]: 55.67 u/L
ALBUMIN [1]: 4.07 G/DL
ALKALINE PHOSPHATASE [1]: 337 u/L
ASPARTATE AMINOTRANSFERASE [1]: 84 u/L
BLOOD UREA NITROGEN [1]: 13.17 mg/dL
CARBON DIOXIDE [1]: 34.17 mmol/L
CHLORIDE [1]: 99.33 MEQ/L
CHOLESTEROL [1]: 78.83 mg/dL
CREATINE PHOSPHOKINASE [1]: 576.83 u/L
CREATININE [1]: 0.17 mg/dL
GLUCOSE [1]: 152.67 mg/dL
LACTATE DEHYDROGENASE [1]: 147.83 u/L
LIPASE [1]: 9.5 u/L
PHOSPHORUS [1]: 10.78 mg/dL
POTASSIUM [1]: 6.34 MEQ/L
SODIUM [1]: 144.12 MEQ/L
TOTAL BILIRUBIN [1]: 0.18 mg/dL
TOTAL PROTEIN [1]: 6.08 G/DL
URIC ACID [1]: 0.65 mg/dL
ABSOLUTE BASOPHIL [2]: 0 CELLS/uL
ABSOLUTE EOSINOPHIL [2]: 31.17 CELLS/uL
ABSOLUTE LYMPHOCYTE [2]: 7918.33 CELLS/uL
ABSOLUTE MONOCYTE [2]: 58.33 CELLS/uL
ABSOLUTE SEGMENTED NEUTROPHIL [2]: 725.5 CELLS/uL
BASOPHIL [2]: 0%
EOSINOPHIL [2]: 0.33%
ERYTHROCYTE COUNT [2]: 5.32 x10E6/uL
HEMATOCRIT [2]: 33.53%
HEMOGLOBIN [2]: 13.17 G/DL
LEUKOCYTE COUNT [2]: 8.73 x10E3/uL
LYMPHOCYTE [2]: 90.33%
MEAN CORPUSCULAR HEMOGLOBIN [2]: 24.82 pg
MEAN CORPUSCULAR HEMOGLOBIN CONCENTRATION [2]: 39.33 G/DL
MEAN CORPUSCULAR VOLUME [2]: 63.12 fL
MONOCYTE [2]: 0.67%
NEUTROPHIL [2]: 8.67%
NUCLEATED RED BLOOD CELLS [2]: 0 /100WBC
PLATELET COUNT [2]: 1144.83 x10E3/uL
ALANINE AMINOTRANSFERASE [2]: 60.5 u/L
ALBUMIN [2]: 3.97 G/DL
ALKALINE PHOSPHATASE [2]: 343.17 u/L
ASPARTATE AMINOTRANSFERASE [2]: 80.83 u/L
BLOOD UREA NITROGEN [2]: 15 mg/dL
CARBON DIOXIDE [2]: 31 mmol/L
CHLORIDE [2]: 99.75 MEQ/L
CHOLESTEROL [2]: 71.5 mg/dL
CREATINE PHOSPHOKINASE [2]: 237.17 u/L
CREATININE [2]: 0.17 mg/dL
GLUCOSE [2]: 137 mg/dL
LACTATE DEHYDROGENASE [2]: 146.17 u/L
LIPASE [2]: 11.5 u/L
PHOSPHORUS [2]: 10.13 mg/dL
POTASSIUM [2]: 6 MEQ/L
SODIUM [2]: 145 MEQ/L
TOTAL BILIRUBIN [2]: 0.13 mg/dL
TOTAL PROTEIN [2]: 5.82 G/DL
URIC ACID [2]: 0.62 mg/dL
ABSOLUTE BASOPHIL [3]: 0 CELLS/uL
ABSOLUTE EOSINOPHIL [3]: 51.33 CELLS/uL
ABSOLUTE LYMPHOCYTE [3]: 9158 CELLS/uL
ABSOLUTE MONOCYTE [3]: 51.33 CELLS/uL
ABSOLUTE SEGMENTED NEUTROPHIL [3]: 572.67 CELLS/uL
BASOPHIL [3]: 0%
EOSINOPHIL [3]: 0.67%
ERYTHROCYTE COUNT [3]: 5.3 x10E6/uL
HEMATOCRIT [3]: 33.23%
HEMOGLOBIN [3]: 12.87 G/DL
LEUKOCYTE COUNT [3]: 9.83 x10E3/uL
LYMPHOCYTE [3]: 93%
MEAN CORPUSCULAR HEMOGLOBIN [3]: 24.27 pg
MEAN CORPUSCULAR HEMOGLOBIN CONCENTRATION [3]: 38.7 G/DL
MEAN CORPUSCULAR VOLUME [3]: 62.83 fL
MONOCYTE [3]: 0.67%
NEUTROPHIL [3]: 5.67%
NUCLEATED RED BLOOD CELLS [3]: 0 /100WBC
PLATELET COUNT [3]: 930.33 x10E3/uL
ALANINE AMINOTRANSFERASE [3]: 63 u/L
ALBUMIN [3]: 4.2 G/DL
ALKALINE PHOSPHATASE [3]: 397.67 u/L
ASPARTATE AMINOTRANSFERASE [3]: 98.33 u/L
BLOOD UREA NITROGEN [3]: 13.33 mg/dL
CARBON DIOXIDE [3]: 35 mmol/L
CHLORIDE [3]: 99 MEQ/L
CHOLESTEROL [3]: 83.33 mg/dL
CREATINE PHOSPHOKINASE [3]: 496 u/L
CREATININE [3]: 0.16 mg/dL
GLUCOSE [3]: 140.67 mg/dL
LACTATE DEHYDROGENASE [3]: 160.33 u/L
LIPASE [3]: 9.67 u/L
PHOSPHORUS [3]: 11.03 mg/dL
POTASSIUM [3]: 6.51 MEQ/L
SODIUM [3]: 143.6 MEQ/L
TOTAL BILIRUBIN [3]: 0.2 mg/dL
TOTAL PROTEIN [3]: 6.1 G/DL
URIC ACID [3]: 0.83 mg/dL
